The record followed here is patent US10059688B2, “Protein tyrosine kinase modulators and methods of use” (BETTA PHARMACEUTICALS CO., LTD., priority 2013, dated 2018).

Broadly, the IC50 is the midpoint of a concentration-inhibition curve. A word on the remaining activity: it is the share of the control activity or signal that is left under treatment. Higher therefore signals much activity left.

The test system of experiment [1] is HCC827 (EGFR Del) NSCLC cells. Kind of experiment: Cell proliferation assay (MTS cell viability). The experiment is classed as cell-based. The settings on record: Homo sapiens, 72 h; HCC827 cells, 3 days of exposure, MTS.
The subject of experiment [2] is A549 (EGFR WT) NSCLC cells. The experiment is described as follows: Cell proliferation assay (MTS cell viability). The experiment is classed as cell-based. The settings on record: Homo sapiens, 72 h; A549 cells, 3 days of exposure, MTS.
The test system of experiment [3] is H1975 (EGFR L858R/T790M) NSCLC cells. The experiment is described as follows: Cell proliferation assay (MTS cell viability). The format is cell-based. The settings on record: Homo sapiens, NCI-H1975, 72 h; H1975 cells, 3 days of exposure, MTS.
The target of a further experiment is ALK (h) (Homo sapiens (Human), UniProt Q9UM73). Kind of experiment: Kinase assay, single dose inhibition (Millipore, 33P-ATP filter binding). The format is biochemical. As to conditions: 0.1 μM test compound, 10 μM ATP, remaining activity relative to DMSO control = 100%.
In a further experiment the target is EGFR (L858R) (h) (Homo sapiens (Human), UniProt P00533, L858R). The description is as above. The experiment is classed as biochemical. As to conditions: 0.1 μM test compound, 10 μM ATP; remaining activity relative to DMSO control = 100%.
In a further experiment the target is EGFR (h) (Homo sapiens (Human), UniProt P00533). Described as above. The format is biochemical. As to conditions: 0.1 μM test compound, 10 μM ATP; remaining activity relative to DMSO control = 100%.
The target in a further experiment is EGFR (T790M, L858R) (h) (Homo sapiens (Human), UniProt P00533, L858R/T790M). Described as above. The experiment is classed as biochemical. As to conditions: 0.1 μM test compound, 10 μM ATP; remaining activity relative to DMSO control = 100%.
The next experiment addresses EGFR (T790M) (h) (Homo sapiens (Human), UniProt P00533, T790M). The description is as above. The experiment is classed as biochemical. As to conditions: 0.1 μM test compound, 10 μM ATP; remaining activity relative to DMSO control = 100%.

Sequence of ALK (h) (Q9UM73 19-1620): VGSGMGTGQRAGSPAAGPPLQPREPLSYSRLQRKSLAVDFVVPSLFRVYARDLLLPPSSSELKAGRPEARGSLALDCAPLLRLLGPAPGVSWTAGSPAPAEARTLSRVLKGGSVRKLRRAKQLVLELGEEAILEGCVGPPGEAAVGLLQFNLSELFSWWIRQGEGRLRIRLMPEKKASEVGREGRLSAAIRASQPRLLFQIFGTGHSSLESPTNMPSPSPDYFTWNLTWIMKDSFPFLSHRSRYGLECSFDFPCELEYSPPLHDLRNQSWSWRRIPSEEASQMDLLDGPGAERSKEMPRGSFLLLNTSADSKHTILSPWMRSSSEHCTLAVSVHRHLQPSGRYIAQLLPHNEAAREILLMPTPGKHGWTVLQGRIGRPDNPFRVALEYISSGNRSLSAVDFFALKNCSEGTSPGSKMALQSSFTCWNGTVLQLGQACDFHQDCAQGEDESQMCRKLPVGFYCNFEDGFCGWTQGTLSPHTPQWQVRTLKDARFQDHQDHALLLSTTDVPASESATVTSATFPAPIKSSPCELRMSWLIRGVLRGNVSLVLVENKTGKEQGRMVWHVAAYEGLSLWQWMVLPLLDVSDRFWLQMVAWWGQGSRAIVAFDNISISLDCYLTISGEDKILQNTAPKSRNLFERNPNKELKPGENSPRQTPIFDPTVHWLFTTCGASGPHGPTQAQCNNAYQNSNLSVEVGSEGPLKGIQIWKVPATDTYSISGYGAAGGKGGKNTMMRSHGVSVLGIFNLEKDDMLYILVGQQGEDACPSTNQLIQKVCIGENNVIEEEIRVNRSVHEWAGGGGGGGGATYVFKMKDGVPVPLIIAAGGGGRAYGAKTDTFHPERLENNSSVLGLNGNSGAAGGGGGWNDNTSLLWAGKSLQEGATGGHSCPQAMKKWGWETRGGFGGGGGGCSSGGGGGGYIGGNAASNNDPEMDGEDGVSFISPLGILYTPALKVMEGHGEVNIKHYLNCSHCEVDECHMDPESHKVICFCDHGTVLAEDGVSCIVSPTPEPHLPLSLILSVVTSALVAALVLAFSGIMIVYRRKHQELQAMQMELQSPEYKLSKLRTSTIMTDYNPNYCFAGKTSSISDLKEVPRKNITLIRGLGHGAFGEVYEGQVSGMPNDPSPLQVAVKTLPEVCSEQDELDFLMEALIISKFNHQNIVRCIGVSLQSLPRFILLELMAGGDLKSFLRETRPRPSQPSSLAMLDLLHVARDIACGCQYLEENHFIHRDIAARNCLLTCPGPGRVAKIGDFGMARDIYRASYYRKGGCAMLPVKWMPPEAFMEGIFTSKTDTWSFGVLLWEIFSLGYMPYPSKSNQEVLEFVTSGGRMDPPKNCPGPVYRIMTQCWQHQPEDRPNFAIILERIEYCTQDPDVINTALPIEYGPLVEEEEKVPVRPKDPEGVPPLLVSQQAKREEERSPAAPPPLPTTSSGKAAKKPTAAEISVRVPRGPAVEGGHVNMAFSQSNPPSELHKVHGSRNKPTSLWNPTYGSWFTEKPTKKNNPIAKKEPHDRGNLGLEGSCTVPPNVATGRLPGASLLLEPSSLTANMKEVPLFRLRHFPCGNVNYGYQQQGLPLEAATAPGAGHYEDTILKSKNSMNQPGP

For `COc1cc(N2CCC(N(C)C)CC2)ccc1Nc1ncc(Cl)c(Nc2ccccc2C(=O)C(=O)NO)n1` [Example 3, 2-(2-(5-chloro-2-(4-(4-(dimethylamino)piperidin-1-yl)-2-methoxyphenylamino)pyrimidin-4-ylamino)phenyl)-N-hydroxy-2-oxoacetamide], the IC50 in experiment [1] is 940 nM; in experiment [2], more than 3000 nM; in experiment [3], 840 nM.

As for `CNC(=O)C(=O)c1ccccc1Nc1nc(Nc2ccc(N3CCC(N(C)C)CC3)cc2OC)ncc1Cl` [Example 16, 2-(2-((5-chloro-2-((4-(4-(dimethylamino)piperidin-1-yl)-2-methoxyphenyl)amino)pyrimidin-4-yl)amino)phenyl)-N-methyl-2-oxoacetamide], the IC50 in experiment [1] was 900 nM; in experiment [2], more than 3000 nM; in experiment [3] it was 1130 nM.

As for `COc1cc(N2CCN(C(C)=O)CC2)ccc1Nc1ncc(Cl)c(Nc2ccccc2C(=O)C(=O)N2CCOCC2)n1` [Example 42, 1-(2-(2-(4-(4-acetylpiperazin-1-yl)-2-methoxyphenylamino)-5-chloropyrimidin-4-ylamino)phenyl)-2-morpholinoethane-1,2-dione], the IC50 in experiment [1], in experiment [2] and in experiment [3] was more than 3000 nM in each case.

For the molecule `COc1cc(N2CCN(C)CC2)ccc1Nc1ncc(C(F)(F)F)c(Nc2ccccc2C(=O)C(=O)N2CCOCC2)n1` [Example 43, 1-(2-(2-(2-methoxy-4-(4-methylpiperazin-1-yl)phenylamino)-5-(trifluoromethyl)pyrimidin-4-ylamino)phenyl)-2-morpholinoethane-1,2-dione], the half-maximal inhibitory concentration (IC50) in experiment [1], in experiment [2] and in experiment [3] was more than 3000 nM throughout.

On to `COc1cc(N2CCN(C)CC2)ccc1Nc1ncc(Cl)c(Nc2ccccc2C(=O)C(=O)N2CCOCC2)n1` [Example 44, 1-(2-(5-chloro-2-(2-methoxy-4-(4-methylpiperazin-1-yl)phenylamino)pyrimidin-4-ylamino)phenyl)-2-morpholinoethane-1,2-dione], for which the results for the IC50 in experiment [1], in experiment [2] and in experiment [3] were 2360 nM, more than 3000 nM and 1230 nM, respectively.

With `COc1cc(N2CCC(N(C)C)CC2)ccc1Nc1ncc(C(F)(F)F)c(Nc2ccccc2C(=O)C(=O)N2CCOCC2)n1` [Example 45, 1-(2-(2-(4-(4-(dimethylamino)piperidin-1-yl)-2-methoxyphenylamino)-5-(trifluoromethyl)pyrimidin-4-ylamino)phenyl)-2-morpholinoethane-1,2-dione], the half-maximal inhibitory concentration (IC50) in experiment [1], in experiment [2] and in experiment [3] was more than 3000 nM each time.

Turning to `COc1cc(N2CCN(C)CC2)ccc1Nc1ncc(Cl)c(Nc2ccccc2C(=O)C(=O)N(C)C)n1` [Example 46, 2-(2-(5-chloro-2-(2-methoxy-4-(4-methylpiperazin-1-yl)phenylamino)pyrimidin-4-ylamino)phenyl)-N,N-dimethyl-2-oxoacetamide], the values for the IC50 in experiment [1], in experiment [2] and in experiment [3] were 1630 nM, more than 3000 nM and 810 nM, respectively.

As for `CNC(=O)C(=O)c1ccccc1Nc1nc(Nc2ccc(N3CCN(C)CC3)cc2OC)ncc1Cl` [Example 47, 2-(2-(5-chloro-2-(2-methoxy-4-(4-methylpiperazin-1-yl)phenylamino)pyrimidin-4-ylamino)phenyl)-N-methyl-2-oxoacetamide], the IC50 in experiment [1], in experiment [2] and in experiment [3] was more than 3000 nM throughout.

On to `C=CC(=O)Nc1cccc(Nc2ncc(Cl)c(Nc3ccccc3C(=O)C(=O)NC)n2)c1` [Example 57, N-(3-(5-chloro-4-(2-(2-(methylamino)-2-oxoacetyl)phenylamino)pyrimidin-2-ylamino)phenyl)acrylamide], for which the IC50 is 270 nM in experiment [1], more than 3000 nM in experiment [2] and 100 nM in experiment [3].

In the case of `C=CC(=O)Nc1cccc(Nc2ncc(C(F)(F)F)c(Nc3ccccc3C(=O)C(N)=O)n2)c1` [Example 58, N-(3-(4-(2-(2-amino-2-oxoacetyl)phenylamino)-5-(trifluoromethyl)pyrimidin-2-ylamino)phenyl)acrylamide], the half-inhibitory concentration (IC50) in experiment [1] stood at 530 nM; in experiment [2], 370 nM; in experiment [3], 980 nM.

As for `C=CC(=O)N1CCC(NC(=O)C(=O)c2ccccc2Nc2nc(Nc3ccc(F)c(OC)c3)ncc2Cl)CC1` [Example 59, N-(1-acryloylpiperidin-4-yl)-2-(2-(5-chloro-2-(4-fluoro-3-methoxyphenylamino)pyrimidin-4-ylamino)phenyl)-2-oxoacetamide], the IC50 in experiment [1] is more than 3000 nM; in experiment [2], more than 3000 nM; in experiment [3], 190 nM.

For `CNC(=O)C(=O)c1ccccc1Nc1nc(Nc2ccc(N3CCN(C)CC3)c(OC)c2)ncc1Cl` [Example 60, 2-(2-(5-chloro-2-(3-methoxy-4-(4-methylpiperazin-1-yl)phenylamino)pyrimidin-4-ylamino)phenyl)-N-methyl-2-oxoacetamide], the IC50 in experiment [1] was 870 nM; in experiment [2], 2080 nM; in experiment [3], 150 nM.

`COc1cc(Nc2ncc(Cl)c(Nc3ccccc3C(=O)C(=O)N(C)C)n2)ccc1F` [Example 62, 2-(2-(5-chloro-2-(4-fluoro-3-methoxyphenylamino)pyrimidin-4-ylamino)phenyl)-N,N-dimethyl-2-oxoacetamide]: the IC50 in experiment [1] is 2330 nM; in experiment [2], more than 3000 nM; in experiment [3] it was more than 3000 nM.

For `CNC(=O)C(=O)c1ccccc1Nc1nc(Nc2ccc(F)c(OC)c2)ncc1Cl` [Example 63, 2-(2-(5-chloro-2-(4-fluoro-3-methoxyphenylamino)pyrimidin-4-ylamino)phenyl)-N-methyl-2-oxoacetamide], the figures for the IC50 in experiment [1], in experiment [2] and in experiment [3] were more than 3000 nM, more than 3000 nM and 640 nM, respectively.

Turning to `C=CC(=O)Nc1cc(Nc2ncc(Cl)c(Nc3ccccc3C(=O)C(=O)NC)n2)c(F)cc1OC` [Example 68, N-(5-(5-chloro-4-(2-(2-(methylamino)-2-oxoacetyl)phenylamino)pyrimidin-2-ylamino)-4-fluoro-2-methoxyphenyl)acrylamide], the concentration for half-maximal inhibition (IC50) in experiment [1] is 1200 nM; in experiment [2], more than 3000 nM; in experiment [3], 650 nM.

Consider `C=CC(=O)Nc1cc(Nc2ncc(Cl)c(Nc3ccccc3C(=O)C(=O)N(C)C)n2)c(F)cc1OC` [Example 69, N-(5-(5-chloro-4-(2-(2-(dimethylamino)-2-oxoactyl)phenylamino)pyrimidin-2-ylamino)-4-fluoro-2-methoxyphenyl)acrylamide], for which the IC50 in experiment [1] is 1200 nM; in experiment [2], more than 3000 nM; in experiment [3], 310 nM.

As for `C/C=C/C(=O)Nc1ccc(OC)c(Nc2ncc(Cl)c(Nc3ccccc3C(=O)C(=O)N(C)C)n2)c1` [Example 70, (E)-N-(3-(5-chloro-4-(2-(2-(dimethylamino)-2-oxoacetyl)phenylamino)pyrimidin-2-ylamino)-4-methoxyphenyl)but-2-enamide], the figures for the IC50 in experiment [1], in experiment [2] and in experiment [3] were 1050 nM, 1370 nM and 310 nM, respectively.

`C=CC(=O)Nc1ccc(N2CCN(C)CC2)c(Nc2ncc(Cl)c(Nc3ccccc3C(=O)C(=O)N(C)C)n2)c1` [Example 135, N-(3-(5-chloro-4-(2-(2-(dimethylamino)-2-oxoacetyl)phenylamino)pyrimidin-2-ylamino)-4-(4-methylpiperazin-1-yl)phenyl)acrylamide]: the “Activity (control) % ALK (h)” value on ALK (h) is recorded as 80%. Besides, the “Activity (control) % EGFR (L858R) (h)” value on EGFR (L858R) (h) is 103%. In addition, on EGFR (h), the “Activity (control) % EGFR (h)” value is 106%. The “Activity (control) % EGFR (T790M, L858R) (h)” value on EGFR (T790M, L858R) (h) worked out at 95%. Besides, the “Activity (control) % EGFR (T790M) (h)” value at EGFR (T790M) (h) is reported as 96%.

On ALK (h) (40 min), `C=CC(=O)Nc1ccc(OC2CCOC2)c(Nc2ncc(Cl)c(Nc3ccccc3C(=O)C(=O)N(C)C)n2)c1` (stereo not shown) [Example 136, N-(3-(5-chloro-4-(2-(2-(dimethylamino)-2-oxoactyl)phenylamino)pyrimidin-2-ylamino)-4-(tetrahydrofuran-3-yloxy)phenyl)acrylamide] returned a remaining activity at 0.1 µM of 29%. On EGFR (L858R) (h), the “Activity (control) % EGFR (L858R) (h)” value came to 104%. In addition, the “Activity (control) % EGFR (h)” value at EGFR (h) came to 99%. Besides, at EGFR (T790M, L858R) (h), the “Activity (control) % EGFR (T790M, L858R) (h)” value is recorded as 54%. For the same molecule, the “Activity (control) % EGFR (T790M) (h)” value on EGFR (T790M) (h) came to 92%.

Turning to `C=CC(=O)Nc1cccc(Oc2nc(Nc3ccc(N4CCN(C)CC4)cc3OC)ncc2Cl)c1` [WZ4002, reference compound], the IC50 in experiment [2] was more than 3000 nM.

For “N-(5-(5-chloro-4-(2-(2-(dimethylamino)-2-oxoactyl)phenylamino)pyrimidin-2-ylamino)-2-(tetrahydrofuran-3-yloxy)phenyl)acrylamide [Example 124]”, the “Activity (control) % ALK (h)” value on ALK (h) stood at 16%. In addition, the “Activity (control) % EGFR (L858R) (h)” value on EGFR (L858R) (h) came out at 100%. Also, at EGFR (h), the “Activity (control) % EGFR (h)” value was found to be 109%. The “Activity (control) % EGFR (T790M, L858R) (h)” value on EGFR (T790M, L858R) (h) was 20%. Also, the “Activity (control) % EGFR (T790M) (h)” value at EGFR (T790M) (h) worked out at 78%.
